{"source": "BindingDB's records for doi:10.1074/jbc.M606873200", "about": "(Incyte, 2006)", "biological_target": "T1, Tyrosine-protein phosphatase non-receptor type 1 [1-298] (Homo sapiens, UniProt P18031)", "T1 construct": "1-298", "T1 sequence (P18031 whole entry)": "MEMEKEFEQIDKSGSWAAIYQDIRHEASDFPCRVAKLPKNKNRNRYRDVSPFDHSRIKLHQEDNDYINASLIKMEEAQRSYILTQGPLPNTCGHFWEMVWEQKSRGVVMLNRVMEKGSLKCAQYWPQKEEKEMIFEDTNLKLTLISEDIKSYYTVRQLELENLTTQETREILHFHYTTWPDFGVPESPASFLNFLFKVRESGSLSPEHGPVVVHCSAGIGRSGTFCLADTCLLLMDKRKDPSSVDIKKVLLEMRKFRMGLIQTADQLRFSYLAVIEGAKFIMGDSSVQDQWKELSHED", "experiment": "Phosphatase Inhibition Assay", "conditions": "pH 7; 22 °C", "data": [{"smiles": "CC(=O)N[C@@H](Cc1ccccc1)C(=O)N[C@@H](Cc1ccc([C@H]2CC(=O)NS2(=O)=O)cc1)C(N)=O", "note": "[(2S)-N-[(1S)-1-carbamoyl-2-{4-[(5R)-1,1,3-trioxo-1,2-thiazolidin-5-yl]phenyl}ethyl]-2-acetamido-3-phenylpropanamide]", "values": [{"measurement": "IC50", "value": 16, "unit": "µM"}]}, {"smiles": "CC(=O)N[C@@H](Cc1ccccc1)C(=O)N[C@@H](Cc1ccc(C2=CC(=O)NS2(=O)=O)cc1)C(N)=O", "note": "[(2S)-N-[(1S)-1-carbamoyl-2-[4-(1,1,3-trioxo-2,3-dihydro-1,2-thiazol-5-yl)phenyl]ethyl]-2-acetamido-3-phenylpropanamide]", "values": [{"measurement": "IC50", "value": 3, "unit": "µM"}]}]}
